From US20230357310A1, “Saponin derivatives with improved therapeutic window” (priority 2019, published 2023)
Where two headings read alike, the source gives them in different places.

Columns and labels:
[1] = system: HeLa (EGFR+) cells; conditions: saponin as single compound
Description: To extend this test, saponins from other sources were analyzed. A saponin purified from a root extract of Gypsophila elegans M. Bieb. […] FIG. 63C).

[2] = system: A431 (EGFR++) cells; experiment: Cell viability, saponin derivative with or without […] EGFdianthin; conditions: A431, saponin as single compound
[3] = system: EGFR expressing cells (A431); experiment: Cell viability assay (MTS): saponin titrated on fixed 10 pM targeted toxin; format: cell-based; conditions: without targeted toxin
[4] = Critical micellar concentration (ANS fluorescence); format: physicochemical; conditions: for CMC compared with native (underivatised) saponin: comparison in words
Description: The critical micellar concentration (CMC) of saponins derived from Saponaria officinalis (SO) (Table A7) and derived from Quillaja saponaria (QS) (Table A8, and Table A9) was determined by the method of DeVendittis et al. (A fluorimetric method for the estimation of the critical micelle concentration of surfactants, Analytical Biochemistry, Volume 115, Issue 2, August 1981, Pages 278-286) as follows:
The emission spectrum of 8-Anilinonaphthalene-1-sulfonic acid (ANS) in either purified water (MQ) or PBS (Dulbecco's PBS+/+) was determined at dry weight concentrations of saponins ranging from 1 to 1400 μM to cover the range below and above the CMC. Above the CMC, the fluorescence yield of ANS increases and the wavelength of maximum emission decreases due to portioning of the fluorescent dye into micelles. Fluorescence yields were recorded on a Fluoroskan Ascent FL (Thermo Scientific) at an excitation wavelength of 355 nm, and an emission wavelength of 460 nm. 6 μg at a concentration of 75.86 μM of ANS were used per sample and measurement.

[5] = system: HeLa cells; experiment: Pilot cell viability bioassay, saponin + 1.5 pM dianthin-EGF, 72 h; format: cell-based; conditions: 10 microgram/ml saponin + […] dianthin-EGF
Description: HeLa cells were incubated for 72 h with the following constructs and cell viability before and after the 72 h-incubation was assessed. In the experiments, cells were exposed to 1.5 pM dianthin-EGF conjugate. A negative control were cells incubated with buffer vehicle and 10 microgram/ml saponin, without dianthin-EGF. Cell viability was set to 100% for the control in which both saponin and EGF-dianthin were omitted. […] Cell viability after 72 h was essentially 0%. For the chemically modified saponin variants, 10 microgram/ml saponin was tested in combination with 1.5 pM dianthin-EGF.

[6] = system: A2058 (EGFR−) cells; experiment: Cell viability, saponin derivative with or without […] EGFdianthin; conditions: A2058, saponin as single compound
[7] = system: human red blood cells; experiment: cells; conditions: for hemolytic activity compared with unmodified saponin: comparison in words
Description: Red blood cells (RBCs) were isolated from a buffy coat using a Ficoll gradient. The obtained RBC pellet (˜4-5 ml) was washed 2× with 50 ml DPBS (without Ca^2+/Mg^2+, PAN-Biotech GmbH). Cells were pelleted by centrifugation for 10 min, 800×g at RT. RBC were counted and resuspended at 500.000.000 c/ml in DPBS (without Ca^2+/Mg^2+), based on total cell count.
Saponin dilutions were prepared in DPBS (with Ca^2+/Mg^2+, PAN-Biotech GmbH), at 1.11×final strength. For positive lysis control a 0.02% Triton-X100 solution was prepared in DPBS^+/+. Of all compound solutions 135 μl was dispensed/well in a 96 well V-bottom plate. To this 15 μl RBC suspension was added and mixed shortly (10 sec-600 rpm). The plate was incubated 30 min at RT, with gentle agitation. Afterwards the plate was spun for 10 min at 800×g to pellet the RBC and 100-120 μl supernatant was transferred to a standard 96 wp (96 well-plate).

[8] = system: HeLa cells; experiment: cells; conditions: for IC50: Homo sapiens, HeLa; for cytotoxicity compared with unmodified saponin: comparison in words
[9] = system: EGFR expressing cells (HeLa); experiment: cells; conditions: Homo sapiens, HeLa, read-out: IC50 endosomal escape enhancing activity, in HeLa or A431, + 5 pM EGF-dianthin, summary range
[10] = system: HSP27 mRNA in A431 cells; experiment: HSP27 mRNA gene silencing analysis; format: cell-based; conditions: A431, without oligonucleotide
Text: (§1) RNA from cells was isolated and analysed according to standard protocols (Biorad). qPCR primers that were used are indicated in Table A10.

[11] = system: A431 cells; format: cell-based; conditions: A431, Table A6; read-out: IC50 nM (Toxicity)
[12] = system: HSP27 mRNA in SK-BR-3 cells; experiment: HSP27 mRNA gene silencing analysis; format: cell-based; conditions: with and without SO1861-Ald-EMCH, SK-BR-3 (FIG. 58)
Text: as §1

CC(=O)OC1C(C)OC(OC2C(C)OC(OC(=O)C34CCC(C)(C)CC3C3=CCC5C6(C)CCC(OC7OC(C(=O)O)C(O)C(OC8OCC(O)C(O)C8O)C7OC7OC(CO)C(O)C(O)C7O)C(C)(C=NNC(=O)CCOCCOCCOCCOCCN=[N+]=[N-])C6CCC5(C)C3(C)CC4O)C(OC3OC(C)C(OC4OCC(O)C(OC5OC(CO)C(O)C(O)C5O)C4O)C(O)C3O)C2O)C(O)C1OC1OCC(O)C(O)C1O (stereo not drawn)
general toxicity in absence of EGFdianthin [1]: above 10.000 nM
general toxicity in absence of EGFdianthin [2]: above 10.000 nM

CC(=O)OC1C(C)OC(OC2C(C)OC(OC(=O)[C@]34CCC(C)(C)CC3C3=CCC5[C@@]6(C)CC[C@H](OC7OC(C(=O)O)C(O)C(OC8OCC(O)C(O)C8O)C7OC7OC(CO)C(O)C(O)C7O)[C@@](C)(C=O)C6CC[C@@]5(C)[C@]3(C)C[C@H]4O)C(OC3OC(C)C(OC4OCC(O)C(OC5OCC(O)C(O)C5O)C4O)C(O)C3O)C2O)C(O)C1OC(C)=O (stereo partly drawn) [GE1741, reference compound]
general toxicity in absence of EGFdianthin [1]: 5.000 nM

CC(=O)OC1C(C)OC(OC2C(C)OC(OC(=O)[C@]34CCC(C)(C)CC3C3=CCC5[C@@]6(C)CC[C@H](OC7OC(C(=O)O)C(O)C(OC8OCC(O)C(O)C8O)C7OC7OC(CO)C(O)C(O)C7O)[C@@](C)(C=O)C6CC[C@@]5(C)[C@]3(C)C[C@H]4O)C(OC3OC(C)C(OC4OCC(O)C(OC5OC(CO)C(O)C(O)C5O)C4O)C(O)C3O)C2O)C(O)C1OC1OCC(O)C(O)C1O (stereo partly drawn) [SO1861, reference compound]
cell killing activity of saponin alone [3]: no cell killing activity
CMC ([4]; PBS (Tables A7, A9)): 185 µM
Cell viability after 72 h [5]: ~0%
general toxicity in absence of EGFdianthin [1]: strong cell viability reduction
general toxicity in absence of EGFdianthin [6]: strong cell viability reduction
general toxicity in absence of EGFdianthin [2]: strong cell viability reduction

CC(=O)OC1C(C)OC(OC2C(C)OC(OC(=O)[C@]34CCC(C)(C)CC3C3=CCC5[C@@]6(C)CC[C@H](OC7OC(C(=O)O)C(O)C(OC8OCC(O)C(O)C8O)C7OC7OC(CO)C(O)C(O)C7O)[C@@](C)(/C=N/NC(=O)CCCCCN7C(=O)C[C@H](SCCO)C7=O)C6CC[C@@]5(C)[C@]3(C)C[C@H]4O)C(OC3OC(C)C(OC4OCC(O)C(OC5OC(CO)C(O)C(O)C5O)C4O)C(O)C3O)C2O)C(O)C1OC1OCC(O)C(O)C1O (stereo partly drawn) [SO1861-Ald-EMCH-blocked]
IC50 ([7]; Homo sapiens, Erythrocyte, read-out: IC50 nM (hemolysis)): 300000 nM
IC50 ([7]; Homo sapiens, Erythrocyte, read-out: IC50 hemolytic activity): 300000 nM
hemolytic activity compared with unmodified saponin [7]: less hemolytically active
IC50 ([7]; read-out: IC50 nM (hemolysis), red blood cells, Table A6): 300000 nM
CMC ([4]; SO saponins, determined in PBS, Table A7): 50 ± 5 µM
CMC compared with native (underivatised) saponin [4]: lower CMC values
IC50 ([8]; read-out: IC50 nM (Toxicity)): > 100000 nM
IC50 ([8]; read-out: IC50 toxicity): > 100000 nM
cytotoxicity compared with unmodified saponin [8]: less cytotoxic
IC50 [9]: 600 to 2000 nM

CC(=O)OC1C(C)OC(OC2C(C)OC(OC(=O)[C@]34CCC(C)(C)CC3C3=CCC5[C@@]6(C)CC[C@H](OC7OC(C(=O)O)C(O)C(OC8OCC(O)C(O)C8O)C7OC7OC(CO)C(O)C(O)C7O)[C@@](C)(/C=N/NC(=O)CCCCCN7C(=O)C=CC7=O)C6CC[C@@]5(C)[C@]3(C)C[C@H]4O)C(OC3OC(C)C(OC4OCC(O)C(OC5OC(CO)C(O)C(O)C5O)C4O)C(O)C3O)C2O)C(O)C1OC1OCC(O)C(O)C1O (stereo partly drawn) [SO1861-Ald-EMCH]
HSP27 gene silencing activity of saponin derivative alone [10]: no HSP27 gene silencing activity
hemolytic activity compared with unmodified saponin [7]: less hemolytically active
cell killing activity of saponin alone [3]: no cell killing activity
CMC ([4]; PBS (Tables A7, A9)): > 800 µM
CMC compared with native (underivatised) saponin [4]: higher CMC values
cytotoxicity compared with unmodified saponin [8]: less cytotoxic
Cell viability after 72 h [5]: reduced cell viability
IC50 [9]: 600 to 2000 nM
general toxicity in absence of EGFdianthin [1]: > 25.000 nM
general toxicity in absence of EGFdianthin [6]: > 25.000 nM
general toxicity in absence of EGFdianthin [2]: > 25.000 nM

CC(=O)OC1C(C)OC(OC2C(C)OC(OC(=O)[C@]34CCC(C)(C)CC3C3=CCC5[C@@]6(C)CC[C@H](OC7OC(C(=O)NCCN8C(=O)C=CC8=O)C(O)C(OC8OCC(O)C(O)C8O)C7OC7OC(CO)C(O)C(O)C7O)[C@@](C)(C=O)C6CC[C@@]5(C)[C@]3(C)C[C@H]4O)C(OC3OC(C)C(OC4OCC(O)C(OC5OC(CO)C(O)C(O)C5O)C4O)C(O)C3O)C2O)C(O)C1OC1OCC(O)C(O)C1O (stereo partly drawn) [SO1861-Glu-AEM]
IC50 [11]: > 100000 nM
CMC compared with native (underivatised) saponin [4]: lower CMC values

HSP27LNA: HSP27 LNA oligo 5′-ggcacagccagtggcg-3′ (GGCACAGCCAGTGGCG; LNA-modified, pattern not given here)
endosomal escape/gene silencing enhancement factor compared with HSP27BNA [12]: comparable
